Experiment: xn = mol fraction of the nth substance listed
Conditions: Liquid, Vibrating tube method

CC(C)=O [acetone] + CCCCCCC
Conditions | mass density [kg/m3]
347.61 K, 99820 kPa, x1 = 0.7024 | 766.18
347.61 K, 104810 kPa, x1 = 0.7024 | 768.98
347.61 K, 109800 kPa, x1 = 0.7024 | 771.73
347.61 K, 114810 kPa, x1 = 0.7024 | 774.41
347.61 K, 119820 kPa, x1 = 0.7024 | 777.02
347.61 K, 124830 kPa, x1 = 0.7024 | 779.56
347.61 K, 129810 kPa, x1 = 0.7024 | 782.01
347.62 K, 1020 kPa, x1 = 0.801 | 689
347.62 K, 1220 kPa, x1 = 0.4 | 705.05
347.62 K, 1220 kPa, x1 = 0.8992 | 705.05
347.62 K, 4860 kPa, x1 = 0.801 | 695.13
347.62 K, 5030 kPa, x1 = 0.4 | 711.05
347.62 K, 5030 kPa, x1 = 0.8992 | 711.05
347.62 K, 9870 kPa, x1 = 0.801 | 702.45
347.62 K, 10010 kPa, x1 = 0.4 | 718.22
347.62 K, 10010 kPa, x1 = 0.8992 | 718.22
347.62 K, 14850 kPa, x1 = 0.801 | 709.08
347.62 K, 15000 kPa, x1 = 0.4 | 724.83
347.62 K, 15000 kPa, x1 = 0.8992 | 724.83
347.62 K, 19850 kPa, x1 = 0.801 | 715.23
347.62 K, 24850 kPa, x1 = 0.801 | 720.94
347.62 K, 29860 kPa, x1 = 0.801 | 726.31
347.62 K, 34950 kPa, x1 = 0.4 | 746.98
347.62 K, 34950 kPa, x1 = 0.8992 | 746.98
347.62 K, 39850 kPa, x1 = 0.801 | 736.15
347.62 K, 39940 kPa, x1 = 0.4 | 751.76
347.62 K, 39940 kPa, x1 = 0.8992 | 751.76
347.62 K, 44930 kPa, x1 = 0.4 | 756.3
347.62 K, 44930 kPa, x1 = 0.8992 | 756.3
347.62 K, 49910 kPa, x1 = 0.4 | 760.61
347.62 K, 49910 kPa, x1 = 0.8992 | 760.61
347.62 K, 54840 kPa, x1 = 0.801 | 749.08
347.62 K, 54890 kPa, x1 = 0.4 | 764.72
347.62 K, 54890 kPa, x1 = 0.8992 | 764.72
347.62 K, 59880 kPa, x1 = 0.4 | 768.69
347.62 K, 59880 kPa, x1 = 0.8992 | 768.69
347.62 K, 64870 kPa, x1 = 0.4 | 772.47
347.62 K, 64870 kPa, x1 = 0.8992 | 772.47
347.62 K, 69850 kPa, x1 = 0.4 | 776.15
347.62 K, 69850 kPa, x1 = 0.8992 | 776.15
347.62 K, 74830 kPa, x1 = 0.4 | 779.64
347.62 K, 74830 kPa, x1 = 0.8992 | 779.64
347.62 K, 74890 kPa, x1 = 0.801 | 763.9
347.62 K, 79820 kPa, x1 = 0.4 | 783.06
347.62 K, 79820 kPa, x1 = 0.8992 | 783.06
347.62 K, 79870 kPa, x1 = 0.801 | 767.26
347.62 K, 84800 kPa, x1 = 0.4 | 786.42
347.62 K, 84800 kPa, x1 = 0.8992 | 786.42
347.62 K, 89780 kPa, x1 = 0.4 | 789.6
347.62 K, 89780 kPa, x1 = 0.8992 | 789.6
347.62 K, 94760 kPa, x1 = 0.4 | 792.68
347.62 K, 94760 kPa, x1 = 0.8992 | 792.68
347.62 K, 99740 kPa, x1 = 0.4 | 795.68
347.62 K, 99740 kPa, x1 = 0.8992 | 795.68
347.62 K, 99810 kPa, x1 = 0.801 | 779.62
347.62 K, 104710 kPa, x1 = 0.4 | 798.57
347.62 K, 104710 kPa, x1 = 0.8992 | 798.57
347.62 K, 109700 kPa, x1 = 0.4 | 801.41
347.62 K, 109700 kPa, x1 = 0.8992 | 801.41
347.62 K, 114660 kPa, x1 = 0.4 | 804.17
347.62 K, 114660 kPa, x1 = 0.8992 | 804.17
347.62 K, 119630 kPa, x1 = 0.4 | 806.86
347.62 K, 119630 kPa, x1 = 0.8992 | 806.86
347.62 K, 124610 kPa, x1 = 0.4 | 809.5
347.62 K, 124610 kPa, x1 = 0.8992 | 809.5
347.62 K, 124830 kPa, x1 = 0.801 | 793.29
347.62 K, 129570 kPa, x1 = 0.4 | 812.05
347.62 K, 129570 kPa, x1 = 0.8992 | 812.05
347.63 K, 1030 kPa, x1 = 0.492 | 657.71
347.63 K, 1030 kPa, x1 = 0.611 | 666.96
347.63 K, 4850 kPa, x1 = 0.492 | 663.76
347.63 K, 4870 kPa, x1 = 0.611 | 673.09
347.63 K, 9850 kPa, x1 = 0.492 | 670.93
347.63 K, 9870 kPa, x1 = 0.611 | 680.36
347.63 K, 14850 kPa, x1 = 0.492 | 677.45
347.63 K, 19850 kPa, x1 = 0.492 | 683.45
347.63 K, 19980 kPa, x1 = 0.4 | 730.92
347.63 K, 19980 kPa, x1 = 0.8992 | 730.92
347.63 K, 24860 kPa, x1 = 0.492 | 689
347.63 K, 24960 kPa, x1 = 0.4 | 736.6
347.63 K, 24960 kPa, x1 = 0.8992 | 736.6
347.63 K, 29860 kPa, x1 = 0.492 | 694.2
347.63 K, 29960 kPa, x1 = 0.4 | 741.95
347.63 K, 29960 kPa, x1 = 0.8992 | 741.95
347.63 K, 34850 kPa, x1 = 0.492 | 699.05
347.63 K, 34850 kPa, x1 = 0.801 | 731.37
347.63 K, 39860 kPa, x1 = 0.492 | 703.65
347.63 K, 44850 kPa, x1 = 0.801 | 740.65
347.63 K, 44870 kPa, x1 = 0.492 | 708.02
347.63 K, 49830 kPa, x1 = 0.492 | 712.11
347.63 K, 49850 kPa, x1 = 0.801 | 744.95

From the NIST ThermoML archive (doi:10.1016/j.fluid.2010.10.028)
